Like-named read-outs stand apart in the source and are kept apart here.
Tests used:
[1] = target: T1, 5-lipoxygenase of the peritoneal leukocytes of rabbits (PMNs) (Oryctolagus cuniculus, UniProt G1SNX0); assay: Inhibition of the 5-lipoxygenase of the peritoneal leukocytes of rabbits (PMNs), metabolism of 14C-arachidonate; type: cell-based; details: rabbit peritoneal PMNs, n.i. = no inhibition
T1 construct: metabolism of ^14 C-AA in the peritoneal PMNs of rabbits; endogenous in cells; host or cells: rabbit peritoneal polymorphonuclear leukocytes (suspension)
T1 sequence (G1SNX0 1-674): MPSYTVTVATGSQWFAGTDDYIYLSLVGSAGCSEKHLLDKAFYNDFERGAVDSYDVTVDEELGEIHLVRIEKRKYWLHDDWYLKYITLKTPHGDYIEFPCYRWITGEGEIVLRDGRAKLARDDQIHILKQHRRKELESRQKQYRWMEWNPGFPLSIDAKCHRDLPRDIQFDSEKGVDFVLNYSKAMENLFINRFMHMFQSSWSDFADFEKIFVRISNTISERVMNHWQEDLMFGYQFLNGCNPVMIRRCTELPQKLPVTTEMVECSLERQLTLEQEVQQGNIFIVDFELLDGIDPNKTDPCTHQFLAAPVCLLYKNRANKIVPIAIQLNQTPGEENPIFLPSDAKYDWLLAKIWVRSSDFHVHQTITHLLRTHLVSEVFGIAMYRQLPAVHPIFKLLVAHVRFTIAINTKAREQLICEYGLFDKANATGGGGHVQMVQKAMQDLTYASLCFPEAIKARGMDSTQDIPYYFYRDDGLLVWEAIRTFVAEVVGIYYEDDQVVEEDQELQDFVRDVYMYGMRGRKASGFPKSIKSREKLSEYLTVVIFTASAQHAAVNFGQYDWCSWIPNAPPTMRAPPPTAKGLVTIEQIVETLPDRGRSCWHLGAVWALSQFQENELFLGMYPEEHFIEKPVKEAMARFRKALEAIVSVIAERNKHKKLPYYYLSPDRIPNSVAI
Experimental: 1.1. Inhibition of the 5-lipoxygenase of the peritoneal leukocytes of rabbits (PMNs)
(§1) Preparation of a suspension of rabbit PMNs
(§2) The peritoneal leukocytes of rabbits are obtained and prepared according to the technique described by P. Borgeat and B. Samuelson (J. Biol. Chem. 254, n° 8, p. 2643, 1979).
(§3) Metabolism of ^14 C-Arachidonate
(§4) The incubation and extraction methods are those described by J. Y. Vanderhoek & co-workers (J. Biol. Chem. […], 21, 10064, 1980).
(§5) The percent inhibition of the 5-lipoxygenase is determined as a function of the concentration of each compound. The concentration of product that inhibits the metabolism by a factor of 50% (IC50) is inferred from those curves.

12-lipoxygenase = target: T2, 12-lipoxygenase (Oryctolagus cuniculus, UniProt G1U492); assay: Inhibition of the metabolism of 14C-arachidonate in the blood platelets of rabbits: 12-lipoxygenase route (12-HETE); type: cell-based; details: rabbit blood platelets; 12 HETE; n.i. = no inhibition
T2 construct: metabolism of ^14 C-Arachidonate in the blood platelets of rabbits; endogenous in cells; host or cells: washed rabbit blood platelets (from platelet-rich plasma)
T2 sequence (G1U492 1-663): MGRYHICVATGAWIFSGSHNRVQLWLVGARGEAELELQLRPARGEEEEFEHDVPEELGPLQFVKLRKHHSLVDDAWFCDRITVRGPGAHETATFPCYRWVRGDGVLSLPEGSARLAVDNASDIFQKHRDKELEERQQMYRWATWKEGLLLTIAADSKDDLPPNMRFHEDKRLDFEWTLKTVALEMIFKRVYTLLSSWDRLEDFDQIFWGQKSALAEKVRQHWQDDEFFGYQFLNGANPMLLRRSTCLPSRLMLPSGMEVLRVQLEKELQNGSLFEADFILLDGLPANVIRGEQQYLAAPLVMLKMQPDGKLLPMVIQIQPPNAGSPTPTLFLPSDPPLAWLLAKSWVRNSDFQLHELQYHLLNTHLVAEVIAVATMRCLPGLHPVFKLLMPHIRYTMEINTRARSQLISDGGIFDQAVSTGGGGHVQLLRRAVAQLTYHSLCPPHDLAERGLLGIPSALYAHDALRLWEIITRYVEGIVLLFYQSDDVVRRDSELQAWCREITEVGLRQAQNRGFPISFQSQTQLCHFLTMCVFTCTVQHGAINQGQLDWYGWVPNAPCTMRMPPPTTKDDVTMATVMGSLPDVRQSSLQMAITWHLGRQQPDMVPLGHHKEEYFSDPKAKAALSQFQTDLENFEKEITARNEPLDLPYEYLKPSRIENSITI
Experimental: (§6) 1.2. Inhibition of the metabolism of
(§7) ^14 C-Arachidonate in the blood platelets of rabbits
(§8) Preparation of a platelet-rich plasma (PRP)
(§9) A 12 ml blood sample is taken, by the intracardiac route, on ACD (anticoagulant consisting of an aqueous solution containing 0.27 g citric acid, 0.5 g disodium citrate and 0.02 g glucose per 20 ml water), at a rate of 1 volume ACD per 6 volumes blood. The blood is centrifuged at 200 g for 10 minutes and the supernatant (PRP) is collected. It is again centrifuged at 1500 g for 15 minutes. The blood-platelet sediment is washed with Buffer I (NaCl: 8 g/l, Tris: 1.21 g/l, KCl: 0.2 g/l, Gelatin: 2.5 g/l; the material is heated at 90° C. to dissolve the gelatin, after which are added glucose: 1 g/l, and N,N'-ethyleneglycol bis(β-aminoethyl ether,)tetraacetic acid or EGTA: 0.075 g/l). The suspension is centrifuged at 1500 g for 10 minutes, and the sediment is taken up into Buffer II (NaCl: 8 g/l, Tris: 1.21 g/l, KCl: 0.2 g/l, CaCl2 : 0.145 g/l, MgCl2 0.2 g/l, gelatin: 2.5 g/l; this material is heated to 90° C., after which glucose (1 g/l) is added, and the pH is adjusted to a value of 7.4 with 0.1 N HCl),
as §3
(§10) The blood-platelet suspension (0.4 ml/tube) is pre-incubated at 37° C. for 15 minutes, either with 10 μl DMSO (reference), or with varying concentrations of products to be treated dissolved in 10 μl DMSO.
(§11) The incubation is effected in the presence of ^14 C-Arachidonate (1 μg, 0.2 μCi) distributed within 0.1 ml Buffer II. It is blocked after 15 minutes by means of 50 μl citric acid and 250 μl saturated NaCl.

15 HETE = assay: Metabolism of 14C-arachidonate in rabbit peritoneal PMNs: 15 HETE; type: cell-based; details: 15 HETE formation, n.i. = no inhibition
Experimental: as §1, §2, §3, §4, §5

prostanoids = assay: Inhibition of the metabolism of 14C-arachidonate in the blood platelets of rabbits: prostanoids route (TxB2, HHT); type: cell-based; details: rabbit blood platelets
Experimental: as §6, §7, §8, §9, §3, §10, §11

[2] = test system: leukocytic infiltration in the aqueous humor; details: in vivo; cited from earlier work
edema of the ear in rats = assay: Cutaneous anti-inflammatory activity: inhibition of the edema of the ear in rats following topic administration; type: in vivo; details: rat ear edema, topical
Experimental: Cutaneous anti-inflammatory activity determined by the inhibition of the edema of the ear in rats following topic administration. This activity is determined by means of the method according to G. Tonelli and co-workers (Endocrinology, 1965, 77, 625-634). The effect of various concentrations of each compound is determined in at least seven rats. Inflammation is inhibited by a factor of 50% at the following concentrations: […]

[3] = Oryctolagus cuniculus, Platelet, HHT, read-out: IC50 in the blood platelets, HHT
[4] = Oryctolagus cuniculus, Platelet, thromboxane B2, read-out: IC50 in the blood platelets, T × B2
[5] = 5 HETE formation, read-out: IC50 in the PMNs, 5 HETE
[6] = LTB4 formation, read-out: IC50 in the PMNs, LTB4

Row | Structure (SMILES) | IC50 (12-lipoxygenase) [µM] | IC50 (prostanoids; [3]) [µM] | IC50 (prostanoids; [4]) [µM] | IC50 [1, 5] [µM] | IC50 [1, 6] [µM] | IC50 in the blood platelets, 12 HETE (12-lipoxygenase) | further results
1 | c1ccc2c(c1)CCCC2=NNc1nccs1 [Example 7a] | – | – | – | 5 | – | n.i. | IC50 (15 HETE): 2 µM; IC50 (prostanoids; HHT, read-out: IC50 in the blood platelets, HHT): 15 µM; IC50 (prostanoids; thromboxane B2, read-out: IC50 in the blood platelets, T × B2): 5 µM
2 | O=C(O)c1cc(=NNc2nccs2)c2ccccc2o1 [Example 20] | – | 20 | 15 | – | – | n.i. | IC50 in the PMNs, 5 HETE ([1]; 5 HETE formation): n.i.; IC50 in the PMNs, LTB4 ([1]; LTB4 formation): n.i.
3 | NC(=NNc1ccccc1)c1ccccc1 [Example 21] | – | 10 | 10 | 20 | 10 | n.i. | –
4 | COc1ccc2c(c1)c(CC(=O)O)c(C)n2C(=O)c1ccc(Cl)cc1 [Indomethacin] | – | – | – | – | – | – | leukocytic infiltration in the aqueous humor [2]: increases leukocytic infiltration in the aqueous humor; concentration at which inflammation is inhibited by a factor of 50% (edema of the ear in rats; at least seven rats): no inhibition
5 | C[C@H](Cc1ccc(O)c(O)c1)[C@@H](C)Cc1ccc(O)c(O)c1 [NDGA, Nordihydroguaiaretic acid] | – | – | – | – | – | – | concentration at which inflammation is inhibited by a factor of 50% (edema of the ear in rats; at least seven rats): 12.5 mg/mL; concentration at which inflammation is inhibited by a factor of 50% (edema of the ear in rats; molar value in parentheses): 41 µmol/mL

Second part, led by results:

Row | IC50 (12-lipoxygenase) [µM] | IC50 (prostanoids; [3]) [µM] | IC50 (prostanoids; [4]) [µM] | IC50 [1, 5] [µM] | IC50 [1, 6] [µM] | IC50 in the blood platelets, 12 HETE (12-lipoxygenase) | Structure (SMILES) | further results
6 | > 50 | > 50 | > 50 | – | – | – | CC(Cn1ccnc1)=NNc1nccs1 [Example 4] | IC50 in the PMNs, 5 HETE ([1]; 5 HETE formation): n.i.; IC50 in the PMNs, LTB4 ([1]; LTB4 formation): n.i.; IC50 (15 HETE; Oryctolagus cuniculus): 2 µM
7 | 40 | 16 | 10 | 6 | 8 | – | c1ccc2c(c1)CCCC2=NNc1nccs1 [Example 7] | IC50 (15 HETE; Oryctolagus cuniculus): 2 µM
8 | – | 25 | < 25 | < 25 | < 25 | n.i. | CC(=NNc1nccs1)c1ccccc1N [Example 15] | –
9 | 25 | 25 | 25 | 25 | 25 | – | CN1CCN(C(=NNc2ccccc2)c2ccccc2)CC1 [Example 23] | –
